PubChem BioAssay (NCI)
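In this assay, cells in 96-well plates receive the compound at five concentrations for 48 hours. Endpoints are linearly interpolated between the surrounding concentrations. GI50 is the concentration that inhibits growth by half. At the TGI there is no net growth.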

Assays:
Assay in all cases: inhibition of tumour cell growth, NCI panel, 48 h
[1] = tested on: CCRF-CEM leukemia
[2] = tested on: HCT-116 colon
[3] = tested on: MDA-MB-231 breast
[4] = tested on: NCI-H23 lung
[5] = tested on: NCI-H460 lung
[6] = tested on: RXF 393 renal
[7] = tested on: SF-268 CNS
[8] = tested on: SF-295 CNS
[9] = tested on: SNB-75 CNS
[10] = tested on: SR leukemia

Compound	GI50 [1] [µM]	TGI [1] [µM]	GI50 [2] [µM]	TGI [2] [µM]	GI50 [3] [µM]	TGI [3] [µM]	GI50 [4] [µM]	TGI [4] [µM]	GI50 [5] [µM]	TGI [5] [µM]	GI50 [6] [µM]	TGI [6] [µM]	GI50 [7] [µM]	TGI [7] [µM]	GI50 [8] [µM]	TGI [8] [µM]	GI50 [9] [µM]	TGI [9] [µM]	TGI [10] [µM]
O=c1nc2n(-c3ccc(Cl)cc3)c3ccc([N+](=O)[O-])cc3cc-2c(=O)[nH]1	9.37	> 100	16.1	33.2	17.3	44.5	17.7	34	23.1	> 100	18.8	> 100	16.5	64.5	19.8	47.1	> 100	> 100	
O=C(CNc1ccc2c(c1)C(=O)c1ccccc1C2=O)Nc1ccc2c(c1)C(=O)c1ccccc1C2=O			0.24	0.711	1.31	4.71	0.304	1.09	1.28	2.88	0.687	2.04	0.575	1.71	1.46	2.89	1.79	4.3	
CN(C(=O)C12C3C4C1C1C4(C(=O)C45C6C7C4C4C5C6C74C)C3C12C)C(C)(C)C (configuration not stated)		> 100		> 100				> 100		> 100				> 100		> 100		> 100	> 100
CC1(c2cccc3ccccc23)OC(=O)c2ccccc21 (configuration not stated)		52.3		34.6				38.1		52.8		46.1		93		54.5		46	
Cc1ccc(/C=C2/SC(Nc3nc(-c4csc(NC5=NC(=O)/C(=C\c6ccc(C)cc6)S5)n4)cs3)=NC2=O)cc1					9.76	40.6	12	> 50	4.36	> 50	23.8	> 50	8.98	> 50	6.66	> 50			
CC(=O)[CH-]C(=O)c1ccccc1.CC(=O)[CH-]C(=O)c1ccccc1.[Eu+3].[OH-].[OH3+]	> 100	> 100	> 100	> 100			> 100	> 100	> 100	> 100	> 100	> 100			> 100	> 100	96.1	> 100	
O=C1NC(=O)C2C(=O)NC(=O)C1C2(c1ccccc1)c1cc[nH]c1 (configuration not stated)		> 100						> 100		> 100		> 100		> 100		> 100		> 100	
CCC1(c2c(F)c(F)c(N)c(F)c2F)CCC(=O)NC1=O (configuration not stated)		> 100		> 100				> 100		> 100				> 100		> 100		> 100	> 100
COc1ccc(-n2nnnc2-c2c[nH]c3c(F)cc(F)cc23)cc1	> 100	> 100	> 100	> 100	27.1	> 100	> 100	> 100	> 100	> 100	16.2	45.4	40.3	> 100	24	59.6	24.3	76.9	
CCc1c(C#N)c(S[C@@H](C(N)=O)c2ccccc2)nc(N(C)C)c1C#N	> 100	> 100	> 100	> 100	10.8	> 100	21.1	> 100	> 100	> 100	4.51	51.9	5.07	> 100	3.81	55.3	2.11	7.18	
NC(=S)N/N=C(\Cc1nc2ccc(Cl)cc2[nH]c1=O)C(=O)Nc1ccc(Cl)cc1		> 100		> 100		> 100		> 100		> 100		> 100		> 100		> 100		> 100	
CCOc1ccccc1NC(=O)CC1SC(=Nc2ccc([N+](=O)[O-])cc2)NC1=O (configuration not stated)		54.3		29.3				35.2		51.1		39.7		> 100		34.9		74.2	
N[C@@H]1CCCC[C@H]1N.O=C([O-])C(=O)[O-].[Pt+4]	0.35	> 100	0.378	> 100	> 100	> 100	1.76	15.2	0.435	38.3	8.13	> 39.8	4.12	> 100	4.71	> 100	18.5	> 100	
